In ChEMBL document CHEMBL4507304, “Data for DCP probe TP-021” (2021):

Experiments:
[1] = biological target: Ribosomal protein S6 kinase alpha-2 (Homo sapiens) (UniProt Q15349); settings: Compound concentration 1000.0 nM
[2] = biological target: Serine/threonine-protein kinase Chk2 (Homo sapiens) (UniProt O96017); settings: Compound concentration 1000.0 nM
[3] = tested on: Epidermal growth factor receptor (Homo sapiens), P00533 [UNDEFINED MUTATION]; settings: Compound concentration 1000.0 nM
[4] = biological target: Dual specificity mitogen-activated protein kinase kinase 2 (Homo sapiens) (UniProt P36507); settings: Compound concentration 1000.0 nM
[5] = biological target: Mitogen-activated protein kinase 10 (Homo sapiens) (UniProt P53779); settings: Compound concentration 1000.0 nM
[6] = biological target: Serine/threonine-protein kinase D2 (Homo sapiens) (UniProt Q9BZL6); settings: Compound concentration 1000.0 nM
[7] = biological target: 5-hydroxytryptamine receptor 1D (Homo sapiens) (UniProt P28221); settings: Compound concentration 10.0 uM
Chain of 5-hydroxytryptamine receptor 1D (Homo sapiens) (P28221 whole entry): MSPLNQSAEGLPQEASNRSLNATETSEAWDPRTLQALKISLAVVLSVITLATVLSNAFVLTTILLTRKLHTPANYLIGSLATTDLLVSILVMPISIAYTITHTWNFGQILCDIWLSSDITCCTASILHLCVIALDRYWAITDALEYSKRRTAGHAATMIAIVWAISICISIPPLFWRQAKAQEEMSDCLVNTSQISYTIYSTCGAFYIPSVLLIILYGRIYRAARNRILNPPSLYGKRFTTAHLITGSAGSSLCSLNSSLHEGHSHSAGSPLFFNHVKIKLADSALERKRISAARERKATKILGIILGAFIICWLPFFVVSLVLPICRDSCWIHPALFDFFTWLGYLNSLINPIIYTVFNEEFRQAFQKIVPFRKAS

[8] = biological target: Protein kinase C iota type (Homo sapiens) (UniProt P41743); settings: Compound concentration 1000.0 nM
[9] = biological target: Serine/threonine-protein kinase DCLK1 (Homo sapiens) (UniProt O15075); settings: Compound concentration 1000.0 nM
Chain of Serine/threonine-protein kinase DCLK1 (Homo sapiens) (O15075 whole entry): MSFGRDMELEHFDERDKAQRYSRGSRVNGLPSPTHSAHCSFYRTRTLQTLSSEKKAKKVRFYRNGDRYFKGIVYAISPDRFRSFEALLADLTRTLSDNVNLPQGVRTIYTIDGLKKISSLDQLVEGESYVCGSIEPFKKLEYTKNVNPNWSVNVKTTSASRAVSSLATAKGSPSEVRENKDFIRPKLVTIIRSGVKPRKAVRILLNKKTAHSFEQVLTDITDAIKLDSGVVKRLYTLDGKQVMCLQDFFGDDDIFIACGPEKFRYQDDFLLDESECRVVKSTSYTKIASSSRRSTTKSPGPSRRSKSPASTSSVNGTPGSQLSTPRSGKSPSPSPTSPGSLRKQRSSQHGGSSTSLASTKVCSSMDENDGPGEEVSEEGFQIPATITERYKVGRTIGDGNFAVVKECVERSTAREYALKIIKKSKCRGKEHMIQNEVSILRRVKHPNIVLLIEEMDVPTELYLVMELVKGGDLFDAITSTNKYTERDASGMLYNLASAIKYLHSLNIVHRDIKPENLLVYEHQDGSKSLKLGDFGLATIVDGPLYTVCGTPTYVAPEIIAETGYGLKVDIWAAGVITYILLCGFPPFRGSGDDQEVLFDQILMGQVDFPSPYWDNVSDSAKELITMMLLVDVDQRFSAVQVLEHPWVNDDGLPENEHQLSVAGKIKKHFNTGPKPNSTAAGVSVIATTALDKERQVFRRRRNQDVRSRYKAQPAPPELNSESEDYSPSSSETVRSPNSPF

[10] = biological target: Tyrosine-protein kinase Lck (Homo sapiens) (UniProt P06239); settings: Compound concentration 1000.0 nM
[11] = biological target: Mitogen-activated protein kinase kinase kinase 20 (Homo sapiens) (UniProt Q9NYL2); settings: Compound concentration 1000.0 nM
[12] = biological target: Beta-2 adrenergic receptor (Homo sapiens) (UniProt P07550); settings: Compound concentration 10.0 uM
Chain of Beta-2 adrenergic receptor (Homo sapiens) (P07550 whole entry, looked up): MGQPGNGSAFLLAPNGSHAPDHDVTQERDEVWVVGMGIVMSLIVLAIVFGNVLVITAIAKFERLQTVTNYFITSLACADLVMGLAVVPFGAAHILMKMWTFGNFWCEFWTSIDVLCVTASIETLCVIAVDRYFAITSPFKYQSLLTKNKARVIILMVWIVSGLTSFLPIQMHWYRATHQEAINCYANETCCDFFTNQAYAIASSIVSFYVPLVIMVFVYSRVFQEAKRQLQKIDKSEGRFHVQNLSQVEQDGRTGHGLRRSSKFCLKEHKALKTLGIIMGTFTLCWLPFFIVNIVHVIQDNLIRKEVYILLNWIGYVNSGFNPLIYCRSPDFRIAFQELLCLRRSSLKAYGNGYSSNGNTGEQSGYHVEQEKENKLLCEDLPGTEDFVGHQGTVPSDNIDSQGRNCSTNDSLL

[13] = tested on: Receptor-type tyrosine-protein kinase FLT3 (Homo sapiens), P36888 [UNDEFINED MUTATION]; settings: Compound concentration 1000.0 nM
[14] = biological target: Mitogen-activated protein kinase kinase kinase 3 (Homo sapiens) (UniProt Q99759); settings: Compound concentration 1000.0 nM
[15] = tested on: Receptor-type tyrosine-protein kinase FLT3 (Homo sapiens), P36888 [K663Q]; settings: Compound concentration 1000.0 nM
[16] = biological target: Serine/threonine-protein kinase WNK4 (Homo sapiens) (UniProt Q96J92); settings: Compound concentration 1000.0 nM
Chain of Serine/threonine-protein kinase WNK4 (Homo sapiens) (Q96J92 whole entry): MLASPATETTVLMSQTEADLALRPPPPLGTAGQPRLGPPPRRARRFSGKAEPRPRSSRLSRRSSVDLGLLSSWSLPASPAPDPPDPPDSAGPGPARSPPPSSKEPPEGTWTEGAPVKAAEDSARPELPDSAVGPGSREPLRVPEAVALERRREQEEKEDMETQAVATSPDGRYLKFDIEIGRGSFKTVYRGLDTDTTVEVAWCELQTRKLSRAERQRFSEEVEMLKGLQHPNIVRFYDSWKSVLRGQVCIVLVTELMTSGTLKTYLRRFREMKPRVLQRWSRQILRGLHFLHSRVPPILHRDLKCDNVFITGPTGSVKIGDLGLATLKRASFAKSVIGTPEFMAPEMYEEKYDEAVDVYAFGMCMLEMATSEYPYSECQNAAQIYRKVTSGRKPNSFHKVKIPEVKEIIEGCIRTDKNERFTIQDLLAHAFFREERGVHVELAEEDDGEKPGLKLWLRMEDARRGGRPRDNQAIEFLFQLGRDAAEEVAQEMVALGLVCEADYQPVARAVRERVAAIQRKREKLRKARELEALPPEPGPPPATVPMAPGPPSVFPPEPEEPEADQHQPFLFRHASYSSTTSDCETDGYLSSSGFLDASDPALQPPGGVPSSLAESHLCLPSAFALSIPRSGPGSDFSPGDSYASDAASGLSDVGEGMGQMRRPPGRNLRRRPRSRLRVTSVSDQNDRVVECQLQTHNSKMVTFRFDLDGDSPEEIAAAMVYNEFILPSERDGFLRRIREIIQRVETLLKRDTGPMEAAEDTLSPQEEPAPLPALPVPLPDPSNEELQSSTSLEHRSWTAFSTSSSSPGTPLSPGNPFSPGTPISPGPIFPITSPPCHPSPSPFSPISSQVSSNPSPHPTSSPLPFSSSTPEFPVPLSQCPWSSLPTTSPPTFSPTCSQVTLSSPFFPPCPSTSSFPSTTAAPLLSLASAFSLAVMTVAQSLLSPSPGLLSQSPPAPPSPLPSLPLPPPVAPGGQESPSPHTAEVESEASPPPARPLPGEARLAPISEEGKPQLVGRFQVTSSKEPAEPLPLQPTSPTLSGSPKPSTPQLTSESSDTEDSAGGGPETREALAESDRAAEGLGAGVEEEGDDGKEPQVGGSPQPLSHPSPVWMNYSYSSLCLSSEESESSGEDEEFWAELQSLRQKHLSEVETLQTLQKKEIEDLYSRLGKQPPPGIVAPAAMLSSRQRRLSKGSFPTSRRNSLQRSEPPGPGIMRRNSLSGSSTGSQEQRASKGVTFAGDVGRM

[17] = biological target: Serine/threonine-protein kinase/endoribonuclease IRE1 (Homo sapiens) (UniProt O75460); settings: Compound concentration 1000.0 nM
[18] = biological target: Dual specificity testis-specific protein kinase 1 (Homo sapiens) (UniProt Q15569); settings: Compound concentration 1000.0 nM
[19] = biological target: Calcium/calmodulin-dependent protein kinase type 1D (Homo sapiens) (UniProt Q8IU85); settings: Compound concentration 1000.0 nM
[20] = biological target: Serine/threonine-protein kinase DCLK2 (Homo sapiens) (UniProt Q8N568); settings: Compound concentration 1000.0 nM
[21] = biological target: Mitogen-activated protein kinase 4 (Homo sapiens) (UniProt P31152); settings: Compound concentration 1000.0 nM
[22] = biological target: Death-associated protein kinase 2 (Homo sapiens) (UniProt Q9UIK4); settings: Compound concentration 1000.0 nM
[23] = biological target: Serine/threonine-protein kinase PAK 3 (Homo sapiens) (UniProt O75914); settings: Compound concentration 1000.0 nM
[24] = biological target: Serine/threonine-protein kinase 36 (Homo sapiens) (UniProt Q9NRP7); settings: Compound concentration 1000.0 nM
[25] = biological target: Serine/threonine-protein kinase Nek7 (Homo sapiens) (UniProt Q8TDX7); settings: Compound concentration 1000.0 nM
[26] = tested on: Tyrosine-protein kinase ABL1 (Homo sapiens), P00519 [H396P]; settings: Compound concentration 1000.0 nM
[27] = biological target: Serine/threonine-protein kinase 17B (Homo sapiens) (UniProt O94768); settings: Compound concentration 1000.0 nM
[28] = biological target: Tyrosine-protein kinase receptor Tie-1 (Homo sapiens) (UniProt P35590); settings: Compound concentration 1000.0 nM
[29] = biological target: Atypical kinase COQ8B, mitochondrial (Homo sapiens) (UniProt Q96D53); settings: Compound concentration 1000.0 nM
[30] = biological target: Ribosomal protein S6 kinase alpha-1 (Homo sapiens) (UniProt Q15418); settings: Compound concentration 1000.0 nM
[31] = biological target: Mu-type opioid receptor (Homo sapiens) (UniProt P35372); settings: Compound concentration 10.0 uM
[32] = tested on: Proto-oncogene tyrosine-protein kinase receptor Ret (Homo sapiens), P07949 [M918T]; settings: Compound concentration 1000.0 nM
[33] = tested on: ALK tyrosine kinase receptor (Homo sapiens), Q9UM73 [C1156Y]; settings: Compound concentration 1000.0 nM
[34] = biological target: Calcium/calmodulin-dependent protein kinase type II subunit alpha (Homo sapiens) (UniProt Q9UQM7); settings: Compound concentration 1000.0 nM
[35] = tested on: Mast/stem cell growth factor receptor Kit (Homo sapiens), P10721 [D816H]; settings: Compound concentration 1000.0 nM
Chain of Mast/stem cell growth factor receptor Kit (Homo sapiens), P10721 [D816H] (P10721 whole entry D816H): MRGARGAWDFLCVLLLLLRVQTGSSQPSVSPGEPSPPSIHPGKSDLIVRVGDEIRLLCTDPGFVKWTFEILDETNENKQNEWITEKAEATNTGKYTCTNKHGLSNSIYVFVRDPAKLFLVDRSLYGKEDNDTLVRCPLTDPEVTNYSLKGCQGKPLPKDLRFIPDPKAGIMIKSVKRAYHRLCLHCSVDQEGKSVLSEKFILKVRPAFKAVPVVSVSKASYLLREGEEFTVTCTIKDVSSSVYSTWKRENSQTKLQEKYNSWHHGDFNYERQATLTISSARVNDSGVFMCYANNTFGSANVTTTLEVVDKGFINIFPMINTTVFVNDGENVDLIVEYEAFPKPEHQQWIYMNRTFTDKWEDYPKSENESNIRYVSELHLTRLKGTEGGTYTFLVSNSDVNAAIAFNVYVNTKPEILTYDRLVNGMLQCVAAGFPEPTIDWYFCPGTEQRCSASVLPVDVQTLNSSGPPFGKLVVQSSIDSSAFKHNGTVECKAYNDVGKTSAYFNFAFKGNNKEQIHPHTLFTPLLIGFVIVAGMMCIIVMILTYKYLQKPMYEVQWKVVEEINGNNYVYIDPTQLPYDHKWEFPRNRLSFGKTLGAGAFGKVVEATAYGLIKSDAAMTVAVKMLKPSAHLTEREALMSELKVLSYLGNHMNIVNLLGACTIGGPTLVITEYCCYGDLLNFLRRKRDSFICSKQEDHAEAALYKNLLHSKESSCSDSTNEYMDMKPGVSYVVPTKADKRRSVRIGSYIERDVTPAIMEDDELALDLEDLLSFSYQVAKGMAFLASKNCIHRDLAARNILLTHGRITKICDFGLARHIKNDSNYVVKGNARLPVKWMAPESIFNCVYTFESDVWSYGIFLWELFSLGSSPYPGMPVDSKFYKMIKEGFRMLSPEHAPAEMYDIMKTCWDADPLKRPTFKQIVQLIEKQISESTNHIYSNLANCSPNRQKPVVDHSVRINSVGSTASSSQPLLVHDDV

[36] = tested on: Tyrosine-protein kinase ABL1 (Homo sapiens), P00519 [F317I]; settings: Compound concentration 1000.0 nM
[37] = biological target: D(1A) dopamine receptor (Homo sapiens) (UniProt P21728); settings: Compound concentration 10.0 uM
[38] = tested on: Receptor-type tyrosine-protein kinase FLT3 (Homo sapiens), P36888 [D835V]; settings: Compound concentration 1000.0 nM
[39] = biological target: Aurora kinase C (Homo sapiens) (UniProt Q9UQB9); settings: Compound concentration 1000.0 nM
Chain of Aurora kinase C (Homo sapiens) (Q9UQB9 whole entry): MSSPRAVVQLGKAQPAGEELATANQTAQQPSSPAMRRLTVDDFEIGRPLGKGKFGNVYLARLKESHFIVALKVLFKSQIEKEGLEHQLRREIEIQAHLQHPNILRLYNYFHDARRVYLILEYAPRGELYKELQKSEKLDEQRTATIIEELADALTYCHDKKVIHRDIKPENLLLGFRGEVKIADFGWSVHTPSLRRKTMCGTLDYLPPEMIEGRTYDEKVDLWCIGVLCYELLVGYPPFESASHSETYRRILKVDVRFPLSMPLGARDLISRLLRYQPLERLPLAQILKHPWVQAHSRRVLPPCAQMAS

[40] = biological target: TGF-beta receptor type-2 (Homo sapiens) (UniProt P37173); settings: Compound concentration 1000.0 nM
[41] = biological target: Serine/threonine-protein kinase BRSK1 (Homo sapiens) (UniProt Q8TDC3); settings: Compound concentration 1000.0 nM
[42] = biological target: Serine/threonine-protein kinase STK11 (Homo sapiens) (UniProt Q15831); settings: Compound concentration 1000.0 nM
[43] = biological target: Serine/threonine-protein kinase PLK2 (Homo sapiens) (UniProt Q9NYY3); settings: Compound concentration 1000.0 nM
[44] = biological target: 5-hydroxytryptamine receptor 1A (Homo sapiens) (UniProt P08908); settings: Compound concentration 10.0 uM
Chain of 5-hydroxytryptamine receptor 1A (Homo sapiens) (P08908 whole entry): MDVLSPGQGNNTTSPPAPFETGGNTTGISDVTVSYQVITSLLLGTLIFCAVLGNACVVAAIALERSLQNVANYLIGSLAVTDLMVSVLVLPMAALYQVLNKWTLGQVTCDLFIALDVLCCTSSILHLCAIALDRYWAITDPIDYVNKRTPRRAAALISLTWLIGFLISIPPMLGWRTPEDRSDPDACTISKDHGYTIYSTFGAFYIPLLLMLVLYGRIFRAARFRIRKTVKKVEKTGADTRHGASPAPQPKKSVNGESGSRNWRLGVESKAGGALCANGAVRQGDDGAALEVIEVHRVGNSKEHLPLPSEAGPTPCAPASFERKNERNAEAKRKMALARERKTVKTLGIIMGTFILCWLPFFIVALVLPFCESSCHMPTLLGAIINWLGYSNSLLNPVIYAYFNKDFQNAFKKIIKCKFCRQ

[45] = tested on: Receptor-type tyrosine-protein kinase FLT3 (Homo sapiens), P36888 [R834Q]; settings: Compound concentration 1000.0 nM

Chain of Serine/threonine-protein kinase Chk2 (Homo sapiens) (O96017 whole entry): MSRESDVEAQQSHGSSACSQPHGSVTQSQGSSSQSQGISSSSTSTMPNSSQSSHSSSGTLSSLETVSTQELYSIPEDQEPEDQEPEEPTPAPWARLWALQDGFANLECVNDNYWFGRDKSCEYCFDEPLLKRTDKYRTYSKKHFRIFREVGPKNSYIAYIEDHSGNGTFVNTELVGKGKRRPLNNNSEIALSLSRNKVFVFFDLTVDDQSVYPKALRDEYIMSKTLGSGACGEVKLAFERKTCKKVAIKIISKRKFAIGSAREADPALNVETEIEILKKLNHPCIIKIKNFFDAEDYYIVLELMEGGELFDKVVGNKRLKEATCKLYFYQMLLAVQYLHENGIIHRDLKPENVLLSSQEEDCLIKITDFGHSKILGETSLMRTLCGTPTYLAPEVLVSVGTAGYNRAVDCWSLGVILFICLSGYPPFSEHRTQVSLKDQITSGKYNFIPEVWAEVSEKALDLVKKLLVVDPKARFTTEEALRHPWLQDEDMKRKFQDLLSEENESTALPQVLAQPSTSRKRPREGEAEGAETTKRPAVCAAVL

N#Cc1ccc(Nc2ccc3[nH]c(=O)[nH]c3c2)c(Cl)c1
inactive: residual activity [1] 100% | residual activity [2] 100% | residual activity [3] 100% | residual activity [4] 93% | residual activity [5] 100% | residual activity [6] 100% | inhibition [7] 3.68% | residual activity [8] 86% | residual activity [9] 84% | residual activity [10] 100% | residual activity [11] 100% | inhibition [12] -0.51% | residual activity [13] 100% | residual activity [14] 84% | residual activity [15] 92% | residual activity [16] 100% | residual activity [17] 86% | residual activity [18] 100% | residual activity [19] 92% | residual activity [20] 100% | residual activity [21] 100% | residual activity [22] 92% | residual activity [23] 100% | residual activity [24] 100% | residual activity [25] 100% | residual activity [26] 95% | residual activity [27] 100% | residual activity [28] 91% | residual activity [29] 100% | residual activity [30] 93% | inhibition [31] 0.37% | residual activity [32] 100% | residual activity [33] 100% | residual activity [34] 84% | residual activity [35] 99% | residual activity [36] 81% | inhibition [37] -7.86% | residual activity [38] 100% | residual activity [39] 100% | residual activity [40] 100% | residual activity [41] 100% | residual activity [42] 100% | residual activity [43] 86% | inhibition [44] -5.44% | residual activity [45] 90%

O=C1CCc2cc(Nc3cc(OC4CCOCC4)c([N+](=O)[O-])cc3Cl)ccc2N1
inactive: residual activity [1] 92% | residual activity [2] 69% | residual activity [3] 100% | residual activity [4] 73% | residual activity [5] 98% | residual activity [6] 85% | inhibition [7] 18.6% | residual activity [8] 98% | residual activity [9] 95% | residual activity [10] 100% | residual activity [11] 81% | inhibition [12] -1.73% | residual activity [13] 78% | residual activity [14] 95% | residual activity [15] 100% | residual activity [16] 100% | residual activity [17] 99% | residual activity [18] 92% | residual activity [19] 100% | residual activity [20] 100% | residual activity [21] 100% | residual activity [22] 79% | residual activity [23] 100% | residual activity [24] 96% | residual activity [25] 87% | residual activity [26] 85% | residual activity [27] 100% | residual activity [28] 100% | residual activity [29] 100% | residual activity [30] 100% | inhibition [31] 1.31% | residual activity [32] 94% | residual activity [33] 91% | residual activity [34] 85% | residual activity [35] 100% | residual activity [36] 92% | inhibition [37] 7.4% | residual activity [38] 70% | residual activity [39] 100% | residual activity [40] 98% | residual activity [41] 100% | residual activity [42] 100% | residual activity [43] 92% | inhibition [44] -4.09% | residual activity [45] 87%
